EP4635500A1, “THERAPEUTIC AGENT FOR BACTERIAL INFECTION” (Sumitomo Pharma Co., Ltd., priority 2022, dated 2024)

Key:
P. aeruginosa = assay: MIC, broth microdilution, CDC/FDA Antibiotic Resistance Isolate Bank (Example 7, Tables 10, 15); type: cell-based
53 CRE and CPE strains = assay: MICrange, MIC50, MIC80, MIC90 for 53 bacterial isolates (Example 5, Table 5); type: cell-based; details: 53 bacterial isolates

colistin
MIC (P. aeruginosa; P. aeruginosa KUB No. 5668, AR Bank # 235): 0.5 µg/mL
MIC (P. aeruginosa; P. aeruginosa KUB No. 5669, AR Bank # 236): 1 µg/mL
MIC (P. aeruginosa; P. aeruginosa KUB No. 5670, AR Bank # 237): 0.5 µg/mL
MIC (P. aeruginosa; P. aeruginosa KUB No. 5671, AR Bank # 238): 1 µg/mL
MIC (P. aeruginosa; P. aeruginosa KUB No. 5672, AR Bank # 239): 1 µg/mL
MIC (P. aeruginosa; P. aeruginosa KUB No. 5673, AR Bank # 240): 1 µg/mL
MIC (P. aeruginosa; P. aeruginosa KUB No. 5674, AR Bank # 241): 1 µg/mL
MIC (P. aeruginosa; P. aeruginosa KUB No. 5675, AR Bank # 242): 0.5 µg/mL
MIC (P. aeruginosa; P. aeruginosa KUB No. 5676, AR Bank # 243): 1 µg/mL
MIC (P. aeruginosa; P. aeruginosa KUB No. 5677, AR Bank # 244): 1 µg/mL
MIC (P. aeruginosa; P. aeruginosa KUB No. 5678, AR Bank # 245): 1 µg/mL
MIC (P. aeruginosa; P. aeruginosa KUB No. 5679, AR Bank # 246): 0.5 µg/mL
MIC (P. aeruginosa; P. aeruginosa KUB No. 5680, AR Bank # 247): 0.5 µg/mL
MIC (P. aeruginosa; P. aeruginosa KUB No. 5681, AR Bank # 248): 1 µg/mL
MIC (P. aeruginosa; P. aeruginosa KUB No. 5682, AR Bank # 249): 0.5 µg/mL
MIC (P. aeruginosa; P. aeruginosa KUB No. 5684, AR Bank # 251): 0.5 µg/mL
MIC (P. aeruginosa; P. aeruginosa KUB No. 5685, AR Bank # 252): 1 µg/mL
MIC (P. aeruginosa; P. aeruginosa KUB No. 5686, AR Bank # 253): 1 µg/mL
MIC (P. aeruginosa; P. aeruginosa KUB No. 5687, AR Bank # 254): 1 µg/mL
MIC (P. aeruginosa; P. aeruginosa KUB No. 5688, AR Bank # 255): 1 µg/mL
MIC (P. aeruginosa; P. aeruginosa KUB No. 5689, AR Bank # 256): 0.5 µg/mL
MIC (P. aeruginosa; P. aeruginosa KUB No. 5690, AR Bank # 257): 1 µg/mL
MIC (P. aeruginosa; P. aeruginosa KUB No. 5691, AR Bank # 258): 0.5 µg/mL
MIC (P. aeruginosa; P. aeruginosa KUB No. 5692, AR Bank # 259): 1 µg/mL
MIC (P. aeruginosa; P. aeruginosa KUB No. 5693, AR Bank # 260): 1 µg/mL
MIC (P. aeruginosa; P. aeruginosa KUB No. 5694, AR Bank # 261): 1 µg/mL
MIC (P. aeruginosa; P. aeruginosa KUB No. 5695, AR Bank # 262): 1 µg/mL
MIC (P. aeruginosa; P. aeruginosa KUB No. 5696, AR Bank # 263): 0.5 µg/mL
MIC (P. aeruginosa; P. aeruginosa KUB No. 5697, AR Bank # 264): 1 µg/mL
MIC (P. aeruginosa; P. aeruginosa KUB No. 5698, AR Bank # 265): 1 µg/mL
MIC (P. aeruginosa; P. aeruginosa KUB No. 5699, AR Bank # 266): 1 µg/mL
MIC (P. aeruginosa; P. aeruginosa KUB No. 5700, AR Bank # 267): 1 µg/mL
MIC (P. aeruginosa; P. aeruginosa KUB No. 5701, AR Bank # 268): 1 µg/mL
MIC (P. aeruginosa; P. aeruginosa KUB No. 5702, AR Bank # 269): 1 µg/mL
MIC (P. aeruginosa; P. aeruginosa KUB No. 5703, AR Bank # 270): 1 µg/mL
MIC (P. aeruginosa; P. aeruginosa KUB No. 5704, AR Bank # 271): 1 µg/mL
MIC (P. aeruginosa; P. aeruginosa KUB No. 5705, AR Bank # 272): 1 µg/mL
MIC (P. aeruginosa; P. aeruginosa KUB No. 5747, AR Bank # 351): 1 µg/mL
MIC (P. aeruginosa; P. aeruginosa KUB No. 5748, AR Bank # 352): 0.5 µg/mL
MIC (P. aeruginosa; P. aeruginosa KUB No. 5749, AR Bank # 353): 0.5 µg/mL
MIC (P. aeruginosa; P. aeruginosa KUB No. 5750, AR Bank # 354): 1 µg/mL
MIC (P. aeruginosa; P. aeruginosa KUB No. 5751, AR Bank # 355): 1 µg/mL
MIC (P. aeruginosa; P. aeruginosa KUB No. 5752, AR Bank # 356): 0.5 µg/mL
MIC (P. aeruginosa; P. aeruginosa KUB No. 5753, AR Bank # 357): 1 µg/mL
MIC (P. aeruginosa; P. aeruginosa KUB No. 5754, AR Bank # 358): 1 µg/mL
MIC (P. aeruginosa; P. aeruginosa KUB No. 5755, AR Bank # 359): 1 µg/mL
MIC (P. aeruginosa; P. aeruginosa KUB No. 5756, AR Bank # 360): 1 µg/mL
MIC (P. aeruginosa; P. aeruginosa KUB No. 5785, AR Bank # 439): 0.5 µg/mL
MIC (P. aeruginosa; P. aeruginosa KUB No. 5786, AR Bank # 440): 1 µg/mL
MIC (P. aeruginosa; P. aeruginosa KUB No. 5787, AR Bank # 441): 0.5 µg/mL
MIC (P. aeruginosa; P. aeruginosa KUB No. 5788, AR Bank # 443): 1 µg/mL
MIC (P. aeruginosa; P. aeruginosa KUB No. 5789, AR Bank # 444): 1 µg/mL
MIC (P. aeruginosa; P. aeruginosa KUB No. 5790, AR Bank # 445): 1 µg/mL
MIC (P. aeruginosa; P. aeruginosa KUB No. 5793, AR Bank # 449): 1 µg/mL
MIC (P. aeruginosa; P. aeruginosa KUB No. 5798, AR Bank # 455): 0.25 µg/mL
MIC (P. aeruginosa; P. aeruginosa KUB No. 5799, AR Bank # 456): 1 µg/mL
MIC (P. aeruginosa; P. aeruginosa KUB No. 5800, AR Bank # 457): 0.5 µg/mL
MIC (P. aeruginosa; P. aeruginosa KUB No. 5801, AR Bank # 458): 0.5 µg/mL
MIC (P. aeruginosa; P. aeruginosa KUB No. 5802, AR Bank # 459): 0.5 µg/mL
MIC (P. aeruginosa; P. aeruginosa KUB No. 5804, AR Bank # 862): 1 µg/mL
MIC (P. aeruginosa; P. aeruginosa KUB No. 5805, AR Bank # 863): 1 µg/mL
MIC (P. aeruginosa; P. aeruginosa KUB No. 5806, AR Bank # 864): 1 µg/mL
MIC (P. aeruginosa; P. aeruginosa KUB No. 5813, AR Bank # 508): 0.0005 µg/mL
MIC (P. aeruginosa; P. aeruginosa KUB No. 5814, AR Bank # 509): 0.001 µg/mL
MIC (P. aeruginosa; P. aeruginosa KUB No. 5815, AR Bank # 510): 0.0005 µg/mL
MIC (P. aeruginosa; P. aeruginosa KUB No. 5816, AR Bank # 511): 0.0005 µg/mL
MIC (P. aeruginosa; P. aeruginosa KUB No. 5817, AR Bank # 512): 0.001 µg/mL
MIC (P. aeruginosa; P. aeruginosa KUB No. 5818, AR Bank # 513): 0.001 µg/mL
MIC (P. aeruginosa; P. aeruginosa KUB No. 5819, AR Bank # 514): 0.001 µg/mL
MIC (P. aeruginosa; P. aeruginosa KUB No. 5820, AR Bank # 515): 0.001 µg/mL
MIC (P. aeruginosa; P. aeruginosa KUB No. 5821, AR Bank # 516): 0.001 µg/mL
MIC (P. aeruginosa; P. aeruginosa KUB No. 5823, AR Bank # 518): 0.001 µg/mL
MIC (P. aeruginosa; P. aeruginosa KUB No. 5831, AR Bank # 526): 0.001 µg/mL
MIC (P. aeruginosa; P. aeruginosa KUB No. 5832, AR Bank # 527): 0.0005 µg/mL
MIC (P. aeruginosa; P. aeruginosa KUB No. 5833, AR Bank # 528): 0.001 µg/mL
MIC (P. aeruginosa; P. aeruginosa KUB No. 5834, AR Bank # 529): 0.001 µg/mL
MIC50 (53 CRE and CPE strains): 0.5 µg/mL
MIC80 (53 CRE and CPE strains): 1 µg/mL
MIC90 (53 CRE and CPE strains): 32 µg/mL
